The results in this text go back to patent US10172868B2, “Substituted quinazolines for inhibiting kinase activity” (NeuPharma, Inc., priority 2013, dated 2019).

The structures appear in SMILES notation.

For assay [1], the system named is H1975 cells. The experiment in a line: Inhibition of cancer cell growth, MTT assay, H1975. The conditions noted are these: Homo sapiens, NCI-H1975, 72 h, read-out: IC50 in H1975 cells. (In general: Tetrazolium assays rely on reduction of a dye to a coloured formazan, in cell work by metabolically active cells.)
For assay [2], the target named is EGFR (ErbB1) T790M L858R (Homo sapiens (Human), UniProt P00533, L858R/T790M). The experiment in a line: Z'-LYTE kinase inhibition assay, EGFR L858R/T790M. The conditions noted are these: for inhibition at 1 µM: read-out: % inhibition against EGFR L858R/T790M (Compound at 1 μM); for IC50: read-out: IC50 against EGFR L858R/T790M; for inhibition at 0.0137 µM: read-out: % inhibition against EGFR L858R/T790M (Compound at 0.0137 μM). The assay is classed as biochemical. The gist of the method: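 Z'-LYTE FRET peptide assay at 1% DMSO, 10-point 3-fold titrations; kinase/peptide mix in 50 mM HEPES pH 6.5, 0.01% BRIJ-35, 10 mM MgCl2, 1 mM EGTA, 0.02% NaN3. Kinase reaction ran 60 min at room temperature, followed by 60 min development and a fluorescence read. IC50 derived from the concentration series.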
Sequence of EGFR (ErbB1) T790M L858R (P00533 25-1210 T790M/L858R): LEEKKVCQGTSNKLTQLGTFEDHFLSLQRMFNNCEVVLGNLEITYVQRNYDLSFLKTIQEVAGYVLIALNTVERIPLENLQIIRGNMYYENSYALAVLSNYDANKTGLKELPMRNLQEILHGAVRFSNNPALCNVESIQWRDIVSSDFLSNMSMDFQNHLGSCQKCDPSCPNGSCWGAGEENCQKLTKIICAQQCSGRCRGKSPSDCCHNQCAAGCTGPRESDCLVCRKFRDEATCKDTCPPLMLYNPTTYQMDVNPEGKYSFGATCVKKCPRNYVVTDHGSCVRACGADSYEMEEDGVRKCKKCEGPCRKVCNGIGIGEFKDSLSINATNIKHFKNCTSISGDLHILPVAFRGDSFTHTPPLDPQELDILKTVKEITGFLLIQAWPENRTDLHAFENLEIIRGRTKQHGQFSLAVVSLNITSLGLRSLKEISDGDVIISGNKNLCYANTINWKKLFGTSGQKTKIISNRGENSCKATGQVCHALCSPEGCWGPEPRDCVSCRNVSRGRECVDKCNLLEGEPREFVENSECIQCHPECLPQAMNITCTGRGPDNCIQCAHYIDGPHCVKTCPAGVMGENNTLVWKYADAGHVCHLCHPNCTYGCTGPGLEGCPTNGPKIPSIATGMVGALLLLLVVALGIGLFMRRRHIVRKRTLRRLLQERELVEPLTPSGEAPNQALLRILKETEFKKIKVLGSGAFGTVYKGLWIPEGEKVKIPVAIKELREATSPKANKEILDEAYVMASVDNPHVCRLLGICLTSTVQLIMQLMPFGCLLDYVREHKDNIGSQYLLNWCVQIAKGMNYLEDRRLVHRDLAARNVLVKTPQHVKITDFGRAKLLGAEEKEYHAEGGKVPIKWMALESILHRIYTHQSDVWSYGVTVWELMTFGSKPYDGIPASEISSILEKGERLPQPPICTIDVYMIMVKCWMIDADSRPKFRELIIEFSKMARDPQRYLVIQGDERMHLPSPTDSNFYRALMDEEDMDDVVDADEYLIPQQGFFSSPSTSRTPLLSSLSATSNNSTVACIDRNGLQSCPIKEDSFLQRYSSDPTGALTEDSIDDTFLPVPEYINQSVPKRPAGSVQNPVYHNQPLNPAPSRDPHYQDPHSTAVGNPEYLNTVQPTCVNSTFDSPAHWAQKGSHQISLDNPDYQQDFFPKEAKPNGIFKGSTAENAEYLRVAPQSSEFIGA

In assay [3] the test system is HCC827 cells. The experiment in a line: cells. The conditions noted are these: Homo sapiens, HCC827, 72 h, read-out: IC50 in HCC827 cells.
Procedure: Taxol (as a positive control. Sigma) and compounds were dissolved in DMSO (Sigma), and the final concentration of DMSO in the medium was 1%. Tumor cells were plated in 96-well plates at densities of about 4000 cells/well of a 96-well plate and allowed to adhere/grow for 24 h. They were then treated with various concentrations of drug for 72 h, 3-(4,5-Dimethylthiazol-2-yl)-2,5-diphenyltetrazolium bromide (MTT, Sigma) was used to determine the number of viable cells at the time of compound addition and the number of cells remaining after 72 h compound exposure. The number of cells remaining after 72 h was compared to the number of viable cells at the time of compound addition by measuring the absorbance at 570 nm, allowing for the calculation of growth inhibition.
All concentrations of compounds were tested in triplicate and controls were averaged over 4 wells. IC50 was calculated by plotting the concentration of compound vs the percentage of inhibition in treated wells using GraphPad Prism 5.
The scale utilized in Tables 5 is as follows: +++ less than 100 nM; ++ between 100 nM and 500 nM; and + greater than 500 nM.
The target of assay [4] is EGFR (ErbB1) (Homo sapiens (Human), UniProt P00533). The experiment in a line: Z'-LYTE kinase inhibition assay, EGFR. The conditions noted are these: for inhibition at 0.041 µM: read-out: % inhibition against EGFR (Compound at 0.041 μM). The assay is classed as biochemical. The gist of the method: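 Z'-LYTE FRET assay run with 1.1-5.25 ng EGFR and 2 μM peptide substrate in 50 mM HEPES pH 7.5, 10 mM MgCl2, 2 mM MnCl2, 1 mM EGTA, 1 mM DTT, 0.01% BRIJ-35, 1% DMSO. Kinase reaction 60 min at room temperature, then 60 min development; IC50 from 10-point 3-fold titrations.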
Sequence of EGFR (ErbB1) (P00533 25-1210): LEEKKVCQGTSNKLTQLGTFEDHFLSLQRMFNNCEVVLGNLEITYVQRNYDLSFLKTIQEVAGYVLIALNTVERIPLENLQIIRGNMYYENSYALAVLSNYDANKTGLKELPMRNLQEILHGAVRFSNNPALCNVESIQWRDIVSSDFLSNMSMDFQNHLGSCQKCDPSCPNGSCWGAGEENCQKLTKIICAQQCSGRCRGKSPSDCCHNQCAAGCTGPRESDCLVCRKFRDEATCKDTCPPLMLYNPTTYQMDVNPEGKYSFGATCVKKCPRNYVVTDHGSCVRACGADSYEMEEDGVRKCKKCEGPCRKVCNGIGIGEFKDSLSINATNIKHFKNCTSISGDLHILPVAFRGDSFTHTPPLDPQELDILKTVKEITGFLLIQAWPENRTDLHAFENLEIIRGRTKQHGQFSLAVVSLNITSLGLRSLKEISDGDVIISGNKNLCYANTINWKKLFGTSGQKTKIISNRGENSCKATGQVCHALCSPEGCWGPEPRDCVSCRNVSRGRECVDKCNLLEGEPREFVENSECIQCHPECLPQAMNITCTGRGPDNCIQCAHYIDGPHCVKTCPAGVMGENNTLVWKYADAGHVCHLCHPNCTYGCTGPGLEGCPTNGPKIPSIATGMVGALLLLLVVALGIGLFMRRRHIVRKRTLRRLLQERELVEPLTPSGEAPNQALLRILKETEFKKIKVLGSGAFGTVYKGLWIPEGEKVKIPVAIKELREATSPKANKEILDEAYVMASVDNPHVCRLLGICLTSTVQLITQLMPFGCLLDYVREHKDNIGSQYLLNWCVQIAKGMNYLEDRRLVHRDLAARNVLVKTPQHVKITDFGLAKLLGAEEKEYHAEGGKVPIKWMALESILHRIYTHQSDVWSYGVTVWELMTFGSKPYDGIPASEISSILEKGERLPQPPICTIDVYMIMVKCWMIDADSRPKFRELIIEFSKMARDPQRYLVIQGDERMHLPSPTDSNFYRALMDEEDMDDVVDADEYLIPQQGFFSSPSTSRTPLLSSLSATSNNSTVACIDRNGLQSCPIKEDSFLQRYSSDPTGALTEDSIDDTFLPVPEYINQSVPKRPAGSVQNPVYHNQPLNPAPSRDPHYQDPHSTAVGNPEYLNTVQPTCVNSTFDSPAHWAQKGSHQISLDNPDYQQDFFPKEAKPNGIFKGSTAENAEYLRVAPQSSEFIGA

Assay [5] deals with A431 cells. The experiment in a line: cells. The conditions noted are these: Homo sapiens, A-431, 72 h, read-out: IC50 in A431 cells.
Assay [6] addresses BTK (Homo sapiens (Human), UniProt Q06187). The experiment in a line: Z'-LYTE kinase inhibition assay, BTK. The conditions noted are these: for inhibition at 0.041 µM: compound at 0.041 μM, read-out: % inhibition against BTK. The assay is classed as biochemical. Here is the method: Inhibitory activities of compounds against BTK, EGFR and EGFR mutants (EGFR L858R, EGFR T790M, EGFR L858R/T790M), FGFR1, FGFR2, JAK2, JAK3 and KDR were measured by Invitrogen using Z'-LYTE® Method as briefly described in the following.
Test Compounds are screened in 1% DMSO (final) in the well. For 10 point titrations, 3-fold serial dilutions are conducted from the starting concentration. All ATP Solutions are diluted to a 4× working concentration in Kinase Buffer (50 mM HEPES pH 7.5, 0.01% BRIJ-35, 10 mM MgCl2, 1 mM EGTA). Peptide/Kinase Mixtures are diluted to a 2× working concentration in the appropriate Kinase Buffers as described below.
(v) Peptide/Kinase Mixtures for Measurement of BTK:
The 2×BTK/Tyr 01 mixture is prepared in 50 mM HEPES pH 7.5. 0.01% BRIJ-35, 10 mM MgCl2, 1 mM EGTA.
The mixture is then incubated for another 60-minute at room temperature for development reaction. Finally fluorescence is read by plate reader.
To determine IC50 of a compound against EGFR, EGFR mutant and other kinases, a series of concentrations of the compound were tested for the inhibition. […] The scale utilized in Table 4 is as follows: +++ less than 100 nM, ++ 100-500 nM and + greater than 500 nM.

Sequence of BTK (Q06187 whole entry): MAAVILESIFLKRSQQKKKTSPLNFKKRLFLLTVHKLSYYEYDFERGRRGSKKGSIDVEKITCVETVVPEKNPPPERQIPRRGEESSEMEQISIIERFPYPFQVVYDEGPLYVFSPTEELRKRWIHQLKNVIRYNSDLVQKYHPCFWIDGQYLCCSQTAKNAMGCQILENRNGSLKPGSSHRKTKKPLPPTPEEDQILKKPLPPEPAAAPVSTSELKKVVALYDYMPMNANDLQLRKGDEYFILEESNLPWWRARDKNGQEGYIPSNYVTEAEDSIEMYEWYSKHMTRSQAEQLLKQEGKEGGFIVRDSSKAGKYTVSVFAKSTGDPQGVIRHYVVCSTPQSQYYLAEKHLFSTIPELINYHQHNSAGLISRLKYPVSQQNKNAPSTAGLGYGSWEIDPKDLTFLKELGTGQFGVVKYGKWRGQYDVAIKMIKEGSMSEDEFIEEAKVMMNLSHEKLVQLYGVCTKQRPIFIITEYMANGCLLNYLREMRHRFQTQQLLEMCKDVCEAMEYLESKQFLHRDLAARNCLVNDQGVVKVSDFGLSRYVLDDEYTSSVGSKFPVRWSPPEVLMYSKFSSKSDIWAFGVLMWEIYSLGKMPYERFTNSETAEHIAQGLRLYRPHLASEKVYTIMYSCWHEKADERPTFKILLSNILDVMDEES

With `Fc1ccc(Cl)cc1-c1cccc2cnc(Nc3ccc(N4CCNCC4)cc3)nc12` [Example C024, 8-(5-chloro-2-fluorophenyl)-N-(4-(piperazin-1-yl)phenyl)quinazolin-2-amine], the IC50 in assay [1] and in assay [3] was more than 500 nM throughout. In addition, the inhibition at 1 µM in assay [2] is more than 50%.

Take `Fc1ccc(OCCN2CCOCC2)cc1-c1cccc2cnc(Nc3ccc(N4CCNCC4)cc3)nc12` [Example C028, 8-(2-fluoro-5-(2-morpholinoethoxy)phenyl)-N-(4-(piperazin-1-yl)phenyl)quinazolin-2-amine]: the IC50 in assay [1] and in assay [3] was more than 500 nM each time. The inhibition at 1 µM in assay [2] is more than 50%.

With `c1ccc(-c2cccc3cnc(Nc4ccc(N5CCNCC5)cc4)nc23)cc1` [Example C030, 8-phenyl-N-(4-(piperazin-1-yl)phenyl)quinazolin-2-amine], the IC50 in assay [1] and in assay [3] was 100 to 500 nM throughout. Also, the inhibition at 1 µM in assay [4] (read-out: % inhibition against EGFR (Compound at 1 μM)) and in assay [2] was more than 50% throughout.

Take `C=CC(=O)Nc1cccc(-c2c(CO)ccc3cnc(Nc4ccc(N5CCN(C)CC5)cc4)nc23)c1` [Example C037, N-(3-(7-(hydroxymethyl)-2-((4-(4-methylpiperazin-1-yl)phenyl)amino)quinazolin-8-yl)phenyl)acrylamide]: the IC50 in assay [1], in assay [5] and in assay [3] was less than 100 nM each time. In addition, in assay [4], the inhibition at 0.041 µM is more than 50%.

On to `C=CC(=O)Nc1cccc(-c2cccc3cnc(Nc4ccc(N5CCN(CC)CC5)cc4)nc23)c1F` [Example C038, N-(3-(2-((4-(4-ethylpiperazin-1-yl)phenyl)amino)quinazolin-8-yl)-2-fluorophenyl)acrylamide], for which the IC50 in assay [1] and in assay [3] was less than 100 nM in each case.

On to `C=CC(=O)Nc1cccc(-c2cccc3cnc(Nc4ccc(OCCO)cc4)nc23)c1` [Example C108, N-(3-(2-((4-(2-hydroxyethoxy)phenyl)amino)quinazolin-8-yl)phenyl)acrylamide], for which the IC50 in assay [1] is less than 100 nM; in assay [6] (read-out: IC50 against BTK), less than 100 nM; in assay [5], more than 500 nM; in assay [2], less than 100 nM.

Turning to `C=CC(=O)Nc1cccc(-c2cccc3cnc(Nc4ccc(OCCN5CCC5)cc4)nc23)c1` [Example C109, N-(3-(2-((4-(2-(azetidin-1-yl)ethoxy)phenyl)amino)quinazolin-8-yl)phenyl)acrylamide], the values for the IC50 in assay [1], in assay [5] and in assay [2] were less than 100 nM, 100 to 500 nM and less than 100 nM, respectively. Besides, the inhibition at 0.041 µM was more than 50% in assay [6] and less than 50% in assay [4]. For the same compound, the inhibition at 0.0137 µM in assay [2] is more than 50%.

Take `C=CC(=O)Nc1cccc(-c2cccc3cnc(Nc4ccc(OCCN(C)C)cc4)nc23)c1` [Example C110, N-(3-(2-((4-(2-(dimethylamino)ethoxy)phenyl)amino)quinazolin-8-yl)phenyl)acrylamide]: the IC50 in assay [1], in assay [5] and in assay [2] was less than 100 nM throughout. In addition, the inhibition at 0.041 µM in assay [6] was more than 50%; in assay [4], less than 50%. For the same compound, in assay [2], the inhibition at 0.0137 µM is more than 50%.

Take `C=CC(=O)Nc1cccc(-c2cccc3cnc(Nc4ccc(N5CCN(C)C(=O)C5)cc4)nc23)c1` [Example C116, N-(3-(2-((4-(4-methyl-3-oxopiperazin-1-yl)phenyl)amino)quinazolin-8-yl)phenyl)acrylamide]: the IC50 in assay [1] lay in the range of 100 to 500 nM. Also, the inhibition at 0.041 µM is more than 50% in assay [6] and less than 50% in assay [4]. Moreover, the inhibition at 0.0137 µM in assay [2] is less than 50%.

For `C=CC(=O)Nc1cccc(-c2cccc3cnc(Nc4ccc(N5CCNC(=O)C5)cc4)nc23)c1` [Example C117, N-(3-(2-((4-(3-oxopiperazin-1-yl)phenyl)amino)quinazolin-8-yl)phenyl)acrylamide], the IC50 in assay [1] is 100 to 500 nM. Besides, the inhibition at 0.041 µM in assay [6] is more than 50%; in assay [4], less than 50%. Further, in assay [2], the inhibition at 0.0137 µM was less than 50%.

On to `C=CC(=O)Nc1cccc(-c2cccc3cnc(Nc4ccc(O[C@@H]5CCOC5)cc4)nc23)c1` [Example C119, (R)-N-(3-(2-((4-((tetrahydrofuran-3-yl)oxy)phenyl)amino)quinazolin-8-yl)phenyl)acrylamide], for which the IC50 in assay [1] is less than 100 nM. Also, the inhibition at 0.041 µM in assay [6] was more than 50%; in assay [4], less than 50%. Moreover, the inhibition at 0.0137 µM in assay [2] was less than 50%.

As to `C=CC(=O)Nc1cccc(-c2cccc3cnc(Nc4ccc(NC5CCN(C(C)=O)CC5)cc4)nc23)c1` [Example C120, N-(3-(2-((4-((1-acetylpiperidin-4-yl)amino)phenyl)amino)quinazolin-8-yl)phenyl)acrylamide], the IC50 in assay [1] was less than 100 nM. The inhibition at 0.041 µM is more than 50% in assay [6] and less than 50% in assay [4]. The inhibition at 0.0137 µM in assay [2] was less than 50%.

As to `C=CC(=O)Nc1cccc(-c2cccc3cnc(Nc4ccc(O[C@H]5CCN(C)C5)cc4)nc23)c1` [Example C121, (S)-N-(3-(2-((4-((1-methylpyrrolidin-3-yl)oxy)phenyl)amino)quinazolin-8-yl)phenyl)acrylamide], the IC50 is less than 100 nM in assay [1], 100 to 500 nM in assay [5] and less than 100 nM in assay [2]. For the same compound, the results for the inhibition at 0.041 µM in assay [6] and in assay [4] were more than 50% and less than 50%, respectively. Moreover, the inhibition at 0.0137 µM in assay [2] is more than 50%.

`C=CC(=O)Nc1cccc(-c2cccc3cnc(Nc4ccc(OC5CN(C(C)=O)C5)cc4)nc23)c1` [Example C122, N-(3-(2-((4-((1-acetylazetidin-3-yl)oxy)phenyl)amino)quinazolin-8-yl)phenyl)acrylamide]: in assay [1], the IC50 was less than 100 nM. Moreover, the inhibition at 0.041 µM in assay [6] is more than 50%; in assay [4], less than 50%. In assay [2], the inhibition at 0.0137 µM is less than 50%.

For `C=CC(=O)Nc1cccc(-c2cccc3cnc(Nc4ccc(O[C@@H]5CCN(C)C5)cc4)nc23)c1` [Example C123, (R)-N-(3-(2-((4-((1-methylpyrrolidin-3-yl)oxy)phenyl)amino)quinazolin-8-yl)phenyl)acrylamide], the IC50 in assay [1], in assay [5] and in assay [2] was less than 100 nM each time. Also, the inhibition at 0.041 µM in assay [6] and in assay [4] was more than 50% throughout. Besides, in assay [2], the inhibition at 0.0137 µM was more than 50%.

Regarding `C=CC(=O)Nc1cccc(-c2cccc3cnc(Nc4ccc(NC5CN(C(C)=O)C5)cc4)nc23)c1` [Example C124, N-(3-(2-((4-((1-acetylazetidin-3-yl)amino)phenyl)amino)quinazolin-8-yl)phenyl)acrylamide], in assay [1], the IC50 is less than 100 nM. Further, the results for the inhibition at 0.041 µM in assay [6] and in assay [4] were more than 50% and less than 50%, respectively. In assay [2], the inhibition at 0.0137 µM is less than 50%.

For the compound `C=CC(=O)Nc1cccc(-c2cccc3cnc(Nc4ccc(OC5CCN(C(C)=O)CC5)cc4)nc23)c1` [Example C125, N-(3-(2-((4-((1-acetylpiperidin-4-yl)oxy)phenyl)amino)quinazolin-8-yl)phenyl)acrylamide], the IC50 in assay [1] is less than 100 nM. Also, the results for the inhibition at 0.041 µM in assay [6] and in assay [4] were more than 50% and less than 50%, respectively. Besides, the inhibition at 0.0137 µM in assay [2] is less than 50%.

For `C=CC(=O)Nc1cccc(-c2cccc3cnc(Nc4ccc(OC5CCN(C)CC5)cc4)nc23)c1` [Example C126, N-(3-(2-((4-((1-methylpiperidin-4-yl)oxy)phenyl)amino)quinazolin-8-yl)phenyl)acrylamide], the IC50 in assay [1], in assay [5] and in assay [2] was less than 100 nM each time. The inhibition at 0.041 µM in assay [6] and in assay [4] was more than 50% in each case. Moreover, the inhibition at 0.0137 µM in assay [2] is more than 50%.
